Experimental data from ChEMBL document CHEMBL4308841, “Synthesis, in vitro antiproliferative activity, and kinase inhibitory effects of pyrazole-containing diarylureas and diarylamides” (Eur J Med Chem, 2018).

Assays:
[1] = test system: TK-10; assay: Growth inhibition of human TK10 cells assessed as cell growth at 10 uM incubated for 48 hrs by sulforhodamine B assay relative to control; assay type: functional; conditions: TK-10, 48 h, read-out: Activity
[2] = test system: SW-620; assay: Growth inhibition of human SW620 cells incubated for 48 hrs by sulforhodamine B assay; assay type: functional, cell-based; conditions: SW-620, 48 h
[3] = test system: OVCAR-4; assay: Growth inhibition of human OVCAR4 cells incubated for 48 hrs by sulforhodamine B assay; assay type: functional, cell-based; conditions: OVCAR-4, 48 h
[4] = test system: SK-OV-3; assay: Growth inhibition of human SKOV3 cells incubated for 48 hrs by sulforhodamine B assay; assay type: functional, cell-based; conditions: SK-OV-3, 48 h
[5] = test system: NCI-H522; assay: Growth inhibition of human NCI-H522 cells assessed as cell growth at 0.01 uM incubated for 48 hrs by sulforhodamine B assay relative to control; assay type: functional; conditions: NCI-H522, 48 h, read-out: Activity
[6] = test system: HCC 2998; assay: Growth inhibition of human HCC2998 cells assessed as cell growth at 0.01 uM incubated for 48 hrs by sulforhodamine B assay relative to control; assay type: functional; conditions: HCC 2998, 48 h, read-out: Activity
[7] = test system: HCT-15; assay: Growth inhibition of human HCT15 cells assessed as cell growth at 0.01 uM incubated for 48 hrs by sulforhodamine B assay relative to control; assay type: functional; conditions: HCT-15, 48 h, read-out: Activity
[8] = test system: HT-29; assay: Growth inhibition of human HT-29 cells assessed as cell growth at 0.01 uM incubated for 48 hrs by sulforhodamine B assay relative to control; assay type: functional; conditions: HT-29, 48 h, read-out: Activity
[9] = test system: KM12; assay: Growth inhibition of human KM12 cells assessed as cell growth at 0.01 uM incubated for 48 hrs by sulforhodamine B assay relative to control; assay type: functional; conditions: KM12, 48 h, read-out: Activity
[10] = test system: NCI/ADR-RES; assay: Growth inhibition of human NCI/ADR-RES cells assessed as cell growth at 0.01 uM incubated for 48 hrs by sulforhodamine B assay relative to control; assay type: functional; conditions: read-out: Activity
[11] = test system: CCRF-CEM; assay: Growth inhibition of human CCRF-CEM cells assessed as cell growth at 0.1 uM incubated for 48 hrs by sulforhodamine B assay relative to control; assay type: functional; conditions: read-out: Activity
[12] = test system: HL-60(TB); assay: Growth inhibition of human HL-60(TB) cells assessed as cell growth at 0.1 uM incubated for 48 hrs by sulforhodamine B assay relative to control; assay type: functional; conditions: HL-60, 48 h, read-out: Activity
[13] = test system: HOP-62; assay: Growth inhibition of human HOP62 cells assessed as cell growth at 0.1 uM incubated for 48 hrs by sulforhodamine B assay relative to control; assay type: functional; conditions: HOP-62, 48 h, read-out: Activity
[14] = test system: SW-620; assay: Growth inhibition of human SW620 cells assessed as cell growth at 0.1 uM incubated for 48 hrs by sulforhodamine B assay relative to control; assay type: functional; conditions: SW-620, 48 h, read-out: Activity
[15] = test system: SF-268; assay: Growth inhibition of human SF268 cells assessed as cell growth at 0.1 uM incubated for 48 hrs by sulforhodamine B assay relative to control; assay type: functional; conditions: SF-268, 48 h, read-out: Activity
[16] = test system: SK-MEL-5; assay: Growth inhibition of human SK-MEL-5 cells assessed as cell growth at 0.1 uM incubated for 48 hrs by sulforhodamine B assay relative to control; assay type: functional; conditions: SK-MEL-5, 48 h, read-out: Activity
[17] = test system: OVCAR-5; assay: Growth inhibition of human OVCAR5 cells assessed as cell growth at 0.1 uM incubated for 48 hrs by sulforhodamine B assay relative to control; assay type: functional; conditions: OVCAR-5, 48 h, read-out: Activity
[18] = test system: DU-145; assay: Growth inhibition of human DU145 cells assessed as cell growth at 0.1 uM incubated for 48 hrs by sulforhodamine B assay relative to control; assay type: functional; conditions: DU-145, 48 h, read-out: Activity
[19] = test system: CCRF-CEM; assay: Growth inhibition of human CCRF-CEM cells assessed as cell growth at 1 uM incubated for 48 hrs by sulforhodamine B assay relative to control; assay type: functional; conditions: read-out: Activity
[20] = test system: NCI-H23; assay: Growth inhibition of human NCI-H23 cells assessed as cell growth at 1 uM incubated for 48 hrs by sulforhodamine B assay relative to control; assay type: functional; conditions: NCI-H23, 48 h, read-out: Activity
[21] = test system: SW-620; assay: Growth inhibition of human SW620 cells assessed as cell growth at 1 uM incubated for 48 hrs by sulforhodamine B assay relative to control; assay type: functional; conditions: SW-620, 48 h, read-out: Activity
[22] = test system: SF-539; assay: Growth inhibition of human SF539 cells assessed as cell growth at 1 uM incubated for 48 hrs by sulforhodamine B assay relative to control; assay type: functional; conditions: SF-539, 48 h, read-out: Activity
[23] = test system: Malme-3M; assay: Growth inhibition of human MALME-3M cells assessed as cell growth at 1 uM incubated for 48 hrs by sulforhodamine B assay relative to control; assay type: functional; conditions: read-out: Activity
[24] = test system: M14; assay: Growth inhibition of human M14 cells assessed as cell growth at 1 uM incubated for 48 hrs by sulforhodamine B assay relative to control; assay type: functional; conditions: M14, 48 h, read-out: Activity
[25] = test system: OVCAR-5; assay: Growth inhibition of human OVCAR5 cells assessed as cell growth at 1 uM incubated for 48 hrs by sulforhodamine B assay relative to control; assay type: functional; conditions: OVCAR-5, 48 h, read-out: Activity
[26] = test system: OVCAR-8; assay: Growth inhibition of human OVCAR8 cells assessed as cell growth at 1 uM incubated for 48 hrs by sulforhodamine B assay relative to control; assay type: functional; conditions: OVCAR-8, 48 h, read-out: Activity
[27] = test system: HOP-62; assay: Growth inhibition of human HOP62 cells assessed as cell growth at 100 uM incubated for 48 hrs by sulforhodamine B assay relative to control; assay type: functional; conditions: HOP-62, 48 h, read-out: Activity
[28] = test system: NCI-H522; assay: Growth inhibition of human NCI-H522 cells assessed as cell growth at 100 uM incubated for 48 hrs by sulforhodamine B assay relative to control; assay type: functional; conditions: NCI-H522, 48 h, read-out: Activity
[29] = test system: LOX IMVI; assay: Growth inhibition of human LOXIMVI cells assessed as cell growth at 100 uM incubated for 48 hrs by sulforhodamine B assay relative to control; assay type: functional; conditions: read-out: Activity
[30] = test system: SK-MEL-2; assay: Growth inhibition of human SK-MEL-2 cells assessed as cell growth at 100 uM incubated for 48 hrs by sulforhodamine B assay relative to control; assay type: functional; conditions: SK-MEL-2, 48 h, read-out: Activity
[31] = test system: RXF 393; assay: Growth inhibition of human RXF393 cells assessed as cell growth at 100 uM incubated for 48 hrs by sulforhodamine B assay relative to control; assay type: functional; conditions: RXF 393, 48 h, read-out: Activity
[32] = test system: DU-145; assay: Growth inhibition of human DU145 cells assessed as cell growth at 100 uM incubated for 48 hrs by sulforhodamine B assay relative to control; assay type: functional; conditions: DU-145, 48 h, read-out: Activity
[33] = read-out: LC50 (the source's name)
[34] = read-out: pLC50 (the source's name) (converted)

Compound: O=C(Nc1cccc(-n2cc(-c3ccncc3)c(-c3cc(O)cc(Cl)c3)n2)c1)c1ccc(N2CCOCC2)c(C(F)(F)F)c1
- growth at 10 µM [1]: 70.3%
- GI50 ([2]; read-out: GI50): 2.53 µM
- LC50 ([2]; read-out: LC50): > 100 µM
- TGI ([2]; read-out: TGI): 70.6 µM
- GI50 ([2]; read-out: pGI50 (converted)): 2.82 µM
- LC50 ([2]; read-out: pLC50 (converted)): > 100 µM
- TGI ([2]; read-out: pTGI (converted)): 7.08 µM
- GI50 ([3]; read-out: GI50): > 100 µM
- CC50 [3, 33]: > 100 µM
- TGI ([3]; read-out: TGI): > 100 µM
- GI50 ([3]; read-out: pGI50 (converted)): > 100 µM
- CC50 [3, 34]: > 100 µM
- TGI ([3]; read-out: pTGI (converted)): > 100 µM
- GI50 ([4]; read-out: GI50): 95.3 µM
- CC50 [4, 33]: > 100 µM
- TGI ([4]; read-out: TGI): > 100 µM
- GI50 ([4]; read-out: pGI50 (converted)): 9.55 µM
- CC50 [4, 34]: > 100 µM
- TGI ([4]; read-out: pTGI (converted)): > 100 µM
- growth at 0.01 µM [5]: 50%
- growth at 0.01 µM [6]: 102%
- growth at 0.01 µM [7]: 91%
- growth at 0.01 µM [8]: 93%
- growth at 0.01 µM [9]: 105%
- growth at 0.01 µM [10]: 101%
- growth at 0.1 µM [11]: 95%
- growth at 0.1 µM [12]: 114%
- growth at 0.1 µM [13]: 112%
- growth at 0.1 µM [14]: 105%
- growth at 0.1 µM [15]: 101%
- growth at 0.1 µM [16]: 91%
- growth at 0.1 µM [17]: 90%
- growth at 0.1 µM [18]: 108%
- growth at 1 µM [19]: 34%
- growth at 1 µM [20]: 92%
- growth at 1 µM [21]: 107%
- growth at 1 µM [22]: 58%
- growth at 1 µM [23]: 52%
- growth at 1 µM [24]: 45%
- growth at 1 µM [25]: 111%
- growth at 1 µM [26]: 57%
- growth at 100 µM [27]: -7%
- growth at 100 µM [28]: -20%
- growth at 100 µM [29]: -45%
- growth at 100 µM [30]: -30%
- growth at 100 µM [31]: -39%
- growth at 100 µM [32]: 13%

Compound: O=C(Nc1cccc(-n2cc(-c3ccncc3)c(-c3cc(O)cc(Cl)c3)n2)c1)Nc1ccc(Cl)c(C(F)(F)F)c1
- growth at 10 µM [1]: 25.9%
- GI50 ([2]; read-out: GI50): 3.29 µM
- LC50 ([2]; read-out: LC50): 58 µM
- TGI ([2]; read-out: TGI): 10.7 µM
- GI50 ([2]; read-out: pGI50 (converted)): 3.31 µM
- LC50 ([2]; read-out: pLC50 (converted)): 56.2 µM
- TGI ([2]; read-out: pTGI (converted)): 10.7 µM
- GI50 ([3]; read-out: GI50): 3.21 µM
- CC50 [3, 33]: > 100 µM
- TGI ([3]; read-out: TGI): 92.3 µM
- GI50 ([3]; read-out: pGI50 (converted)): 3.24 µM
- CC50 [3, 34]: > 100 µM
- TGI ([3]; read-out: pTGI (converted)): 9.33 µM
- GI50 ([4]; read-out: GI50): 4.11 µM
- CC50 [4, 33]: > 100 µM
- TGI ([4]; read-out: TGI): 30.7 µM
- GI50 ([4]; read-out: pGI50 (converted)): 4.07 µM
- CC50 [4, 34]: > 100 µM
- TGI ([4]; read-out: pTGI (converted)): 30.9 µM
- growth at 0.01 µM [5]: 56%
- growth at 0.01 µM [6]: 97%
- growth at 0.01 µM [7]: 93%
- growth at 0.01 µM [8]: 98%
- growth at 0.01 µM [9]: 91%
- growth at 0.01 µM [10]: 96%
- growth at 0.1 µM [11]: 95%
- growth at 0.1 µM [12]: 89%
- growth at 0.1 µM [13]: 97%
- growth at 0.1 µM [14]: 98%
- growth at 0.1 µM [15]: 93%
- growth at 0.1 µM [16]: 98%
- growth at 0.1 µM [17]: 91%
- growth at 0.1 µM [18]: 99%
- growth at 1 µM [19]: 92%
- growth at 1 µM [20]: 96%
- growth at 1 µM [21]: 101%
- growth at 1 µM [22]: 91%
- growth at 1 µM [23]: 94%
- growth at 1 µM [24]: 83%
- growth at 1 µM [25]: 109%
- growth at 1 µM [26]: 99%
- growth at 100 µM [27]: -12%
- growth at 100 µM [28]: -95%
- growth at 100 µM [29]: -89%
- growth at 100 µM [30]: -88%
- growth at 100 µM [31]: -72%
- growth at 100 µM [32]: -68%
